Data set [1] is described as follows: Particle size distribution of O/W emulsions with Accusizer 780 Optical Particle Sizer. In kind it is physicochemical. As to conditions: O/W emulsion; footnote c: measured with Accusizer 780 Optical Particle Sizer. As to the method:
In an exemplary method of preparation, 180 mg of the surfactant was dissolved in 9 mL of ultrapure water (MilliQ), then 1 mL of Perfluorodecalin was added to the solution. The mixture was sonicated using an UP400St Hielscher ultrasonic homogenizer. Operation parameters of the device: A=90% (amplitude), continuous operation mode, sonotrode type—H14. The process of ultrasonic homogenization was carried out for about 2 minutes, while the reaction vessel was intensely cooled using an ice bath. 10 mL of the o/w emulsion with 10% v/v of the perfluorinated phase relative to the aqueous phase was obtained. As can be appreciated, this method is merely exemplary, and other methods or preparation approaches may be used.
The emulsion particle size distribution was determined using the Accusizer 780 Optical Particle Sizer PSS NICOMP device. A series of dilutions of the analyzed emulsion were prepared: 10-fold, 100-fold and 1000-fold with ultrapure water (MilliQ), in triplicate. The particle size distribution of the 1000-fold diluted emulsion was examined, a minimum of 3 measurements were taken, preparing approximately 30 mL of the diluted emulsion for each one of them. The results were presented by the several values: the average diameter (given in μm), and the percentage number of particles in different ranges (for example, in the diameter range 0.5-2 μm, 2-5 μm, 5-10 μm, >10 μm). The values from these three measurements were averaged and standard deviation was calculated.

In data set [2] the test system is HMEC-1 human vascular endothelial cells.
In a further data set the test system is male Sprague Dawley rats. Briefly: Red blood cells substitute in vivo test: gradual bleeding with compensation in rats under general anaesthesia. More on the design: species or system rat. The settings on record: for Amount of 5-min intervals (duration until cardiac cessation, per rat): exchange of 5% of blood volume per interval; for Amount of 5-min intervals (duration until cardiac cessation, per rat) / Amount of 5-min intervals expressed in min (per rat): individual rats; for Systolic blood pressure was >40 mm Hg for: tail cuff; for pH maintained at 7.3 up to: venous blood; for Hematocrit at the end of the experiment: gradual decrease from physiological values. The method, then:
The study protocol was approved by the Local Ethical Committee (No. WAW2/057/2018), Warsaw University of Life Sciences, Warsaw, Poland. Study was carried out by the Department of Large Animal Diseases with the Clinic of the Faculty of Veterinary Medicine of the Warsaw University of Life Sciences in Warsaw. The study involved male Sprague Dawley rats (n=19; weight, 400±20 g; age, 8 to 12 weeks) obtained from the Mossakowski Medical Research Centre, Polish Academy of Sciences (Warsaw, Poland) divided into 4 non-equal groups (table below). The animals were kept in accordance with national animal welfare guidelines.
12 h before the experiment, feedstuffs were removed from animals' cages without restrictions to the water. Animals were weighted for circulating blood volume calculation according to Lee and Blaufox (1985) and anesthetized by intramuscular injection of the mixture of Ceptor—0.1 mL (Scanvet), Butomidor—0.1 mL (Richter Pharma AG) and Bioketan—0.1 mL (Vetoquinol). Within 2 min after injection, animals were placed in the dorsal position, on Thermo-Controlled Surgery Platform (Braintree Scientific, USA) and the catheter for blood collection was implanted.
A silicone catheter (Scientific Commodities INC, USA) was inserted into the left common jugular vein towards the heart and fastened with a tie (non-absorbable twisted strand, 4-0) for best fluid delivery and blood sampling. The catheter was kept filled with Ringer's fluid between the blood removals. The catheter's patency was maintained without the use of anti-clotting agents. The skin was not stitched, a swab moistened with saline solution was applied to the wound. Then the rats were transferred to a GN 1/1 electric heating plate (temp. 37±1° C., Bartscher, Poland), where a cuff was applied to the rat's tail to measure bloodless tail blood pressure (MLT125R, ADI, Australia), connected to the system NIBP (Non-Invasive Blood Pressure, ADI, Australia) and eight-channel PowerLab (ADI, Australia) and PC. Throughout the experiment, pulse and blood pressure were recorded in the Chart program (ADI, Australia). During the entire experiment, systolic and mean arterial blood readings were taken up to a blood pressure systolic threshold reading of 40 mm Hg between blood collections.
A total of 4 experiment variants were performed, as in the table above, using the method of gradual bleeding with compensation described in the previous experiment (5% of circulating blood). Compensations were used in subsequent experiments: Voluven fluid (Hydroxyethyl starch (HES 130/0.4), dextran 130 kDa, Fresenius Kabi) and formulations 2j3c, 2j3e and 2l3e (NanoSanguis) administered in Voluven fluid (concentration 0.5% w/v).
In venous blood samples, blood gas determinations (Siemens EPOC gasometer) were performed: pH, pCO2 (CO2 pressure, mm Hg), pO2 (oxygen pressure, mm Hg), cHCO3-(bicarbonate ion concentration, mmol/L), BE (ecf) (deficiency in blood buffering bases, mmol/L), hematocrit (Hct, %, less precise measurement than in a morphology analyzer), glucose (mg/dL), lactate (Lac, mmol/L), creatinine (Crea, mg/dL) followed by morphology (Mindray analyzer): hematocrit (hct, %), hemoglobin (g/L), red blood cell count (RBC, 10^12/L), white blood cell count (WBC, ×10^9/L) and platelet count (PLT, ×10^9/L). […] The results are given in the attached Excel spreadsheet. Blood for other biochemical analyses was centrifuged and frozen (−20° C.). Collected organ (liver, kidney, lung and heart) samples were fixed in buffered formalin, and after 48 hours. transferred to 70% ethyl alcohol and stored for histological examination. Histological examination was performed after routine staining of the hematoxylin and eosin sections.

Data set [3] relates to L929 and HMEC-1 cell lines.

The source of these data is US20210369846A1 (priority 2018, published 2021).

Structures are written as SMILES. Where “and” joins values, the source holds several entries; their conditions need not be identical. Equal values may be shown once. Entries after “also recorded” stand apart in the source; their conditions may differ. Marks after values point to notes of the source that are not given here.

As to `O=C([O-])CCC(=O)OCCC(F)(F)C(F)(F)C(F)(F)C(F)(F)C(F)(F)C(F)(F)C(F)(F)C(F)(F)F.[K+]` [2jK], the Average diameter in data set [1] is recorded as 1090 ± 10 ^c nm. Also, in the data set with L929 mouse fibroblasts, the “Maximum Non-Cytotoxic Concentration L929” value was less than 0.25%. For the same compound, the “Maximum Non-Cytotoxic Concentration HMEC-1” value in data set [2] was 0.5%. In the data set on blood, the “Maximum Non-Hemolytic Concentration” value is more than 2.00%.

Take `O=C(O)CCCC(=O)OCCC(F)(F)C(F)(F)C(F)(F)C(F)(F)C(F)(F)C(F)(F)C(F)(F)C(F)(F)F` [2l3e]: in the data set with male Sprague Dawley rats (0.5% w/v in Voluven), the “Survival of rats higher compared to the control group receiving Voluven” value was determined as 10 intervals; the “Amount of 5-min intervals (duration until cardiac cessation, per rat)” value was 10 5-min intervals and 13 5-min intervals and 21 5-min intervals and 28 5-min intervals and 31 5-min intervals; the “Amount of 5-min intervals expressed in min (per rat)” value was 155 min and 60 min and 75 min and 105 min and 140 min; the “Systolic blood pressure was >40 mm Hg for” value is listed as 18-22 intervals. Moreover, the “pH maintained at 7.3 up to” value in the data set on male Sprague Dawley rats (0.5% w/v in Voluven) was 20-21 intervals. The “Change caused slower in comparison to the control group” value in the data set with male Sprague Dawley rats (control: Voluven) is “pH decrease; also recorded: increase in pCO2; also recorded: decrease in buffer base deficiency; also recorded: increase of lactate and creatinine”. Moreover, the “Maximum Non-Cytotoxic Concentration L929” value in the data set on L929 mouse fibroblasts is reported as more than 2.00%. In addition, the “Maximum Non-Cytotoxic Concentration HMEC-1” value in data set [2] is recorded as more than 2.00%. For the same compound, the “Maximum Non-Hemolytic Concentration” value in the data set with blood was more than 2.00%.

Consider `O=C([O-])CCC(=O)OCCC(F)(F)C(F)(F)C(F)(F)C(F)(F)C(F)(F)C(F)(F)F.[K+]` [2iK], for which, in data set [1], the Average diameter was 880 ± 40 ^c nm. Also, the “Maximum Non-Cytotoxic Concentration L929” value in the data set on L929 mouse fibroblasts was <0.25** %. Also, the “Maximum Non-Cytotoxic Concentration HMEC-1” value in data set [2] was found to be 0.25%. In the data set with blood, the “Maximum Non-Hemolytic Concentration” value is listed as 0.02%.

On to `O=C(O)CCC(=O)OCCC(F)(F)C(F)(F)C(F)(F)C(F)(F)C(F)(F)C(F)(F)C(F)(F)C(F)(F)F` [2j3c], for which, in the data set with male Sprague Dawley rats (0.5% w/v in Voluven), the “Lactate concentration above physiological values (limit 8.5 mmol/L) occurred at intervals” value is 15 intervals and 19 intervals; the “RBC at the end of the experiment” value is approximately 2e+12 L⁻¹; the “Survival of rats higher compared to the control group receiving Voluven” value came out at 7 intervals; the “WBC at the end of the experiment” value is approximately 1e+09 L⁻¹. In the data set on male Sprague Dawley rats (0.5% w/v in Voluven), the “Amount of 5-min intervals (duration until cardiac cessation, per rat)” value was 24 5-min intervals and 23 5-min intervals and 18 5-min intervals (2×) and 11 5-min intervals; the “Hematocrit at the end of the experiment” value was “about 9%”; the “Amount of 5-min intervals expressed in min (per rat)” value was 55 min and 120 min and 115 min and 90 min (2×); the “Systolic blood pressure was >40 mm Hg for” value was 12 intervals and 20 intervals. In the data set with male Sprague Dawley rats (0.5% w/v in Voluven), the “pH maintained at 7.3 up to” value is 13 intervals and 17 intervals. Besides, in the data set with L929 mouse fibroblasts, the “Maximum Non-Cytotoxic Concentration L929” value amounted to 0.25%. Moreover, the “Maximum Non-Cytotoxic Concentration HMEC-1” value in data set [2] is on record as 0.5%. Moreover, the “Maximum Non-Hemolytic Concentration” value in the data set with blood is more than 2.00%.

Turning to `O=C(O)CCC(=O)OCCC(F)(F)C(F)(F)C(F)(F)C(F)(F)C(F)(F)C(F)(F)C(F)(F)C(F)(F)F` [2j3e], in the data set on male Sprague Dawley rats (0.5% w/v in Voluven), the “Buffer balance deficiency (Be (ecf)) occurred at” value is recorded as 14-19 intervals; the “Lactate concentration above physiological values (limit 8.5 mmol/L) occurred at intervals” value is listed as 13-19 intervals; the “Survival of rats higher compared to the control group receiving Voluven” value was 8 intervals; the “Amount of 5-min intervals (duration until cardiac cessation, per rat)” value is 15 5-min intervals and 17 5-min intervals and 21 5-min intervals and 25 5-min intervals and 29 5-min intervals. In addition, in the data set with male Sprague Dawley rats (0.5% w/v in Voluven), the “Hematocrit at the end of the experiment” value is reported as “about 5%”; the “Amount of 5-min intervals expressed in min (per rat)” value is 145 min and 75 min and 85 min and 105 min and 125 min; the “pH maintained at 7.3 up to” value is 13 intervals and 20 intervals. In the data set on male Sprague Dawley rats (limit 40 mm Hg), the “Maintaining systolic pressure above the limit, comparing to other test groups” value is “longer”. Moreover, the “Maximum Non-Cytotoxic Concentration L929” value in the data set on L929 mouse fibroblasts came to 0.5%. Besides, the “Maximum Non-Cytotoxic Concentration HMEC-1” value in data set [2] is recorded as 0.5%. The “Maximum Non-Hemolytic Concentration” value in the data set on blood was found to be 1%.

Take `O=C([O-])CCC(=O)OCCC(F)(F)C(F)(F)C(F)(F)C(F)(F)C(F)(F)C(F)(F)C(F)(F)C(F)(F)F.[Na+]` [2jNa]: in data set [1], the Average diameter is given as 820 ± 20 ^c nm. Further, in the data set on L929 mouse fibroblasts, the “Maximum Non-Cytotoxic Concentration L929” value is recorded as less than 0.25%. The “Maximum Non-Cytotoxic Concentration HMEC-1” value in data set [2] was 0.5%. For the same compound, in the data set on blood, the “Maximum Non-Hemolytic Concentration” value was 1%.

With `O=C(O)CSCCC(F)(F)C(F)(F)C(F)(F)C(F)(F)C(F)(F)C(F)(F)C(F)(F)C(F)(F)F` [2a3d], the Average diameter in data set [1] was 640 ± 10 ^c nm. Moreover, in the data set on L929 mouse fibroblasts, the “Maximum Non-Cytotoxic Concentration L929” value was 0.2%. Besides, the “Maximum Non-Cytotoxic Concentration HMEC-1” value in data set [2] is listed as 0.1%. Further, the “Maximum Non-Hemolytic Concentration” value in the data set on blood was determined as 0.02%.

With `O=C([O-])CSCCC(F)(F)C(F)(F)C(F)(F)C(F)(F)C(F)(F)C(F)(F)C(F)(F)C(F)(F)F.[K+]` [2aK], in data set [1], the Average diameter is listed as 770 ± 20 ^c nm. The “Maximum Non-Cytotoxic Concentration L929” value with L929 mouse fibroblasts was found to be 1%. In data set [2], the “Maximum Non-Cytotoxic Concentration HMEC-1” value was 1%. For the same compound, the “Maximum Non-Hemolytic Concentration” value with blood was more than 2.00%.

As to `O=C(O)CCCC(=O)OCCC(F)(F)C(F)(F)C(F)(F)C(F)(F)C(F)(F)C(F)(F)C(F)(F)C(F)(F)F` [2l3k], the “Maximum Non-Cytotoxic Concentration L929” value with L929 mouse fibroblasts is reported as more than 1.00%. Further, the “Maximum Non-Cytotoxic Concentration HMEC-1” value in data set [2] is more than 1.00%. The “Maximum Non-Hemolytic Concentration” value in the data set with blood was more than 2.00%. Moreover, the Cytotoxic potential entry in data set [3] is “low cytotoxic potential”.

For `O=C(O)CSCCC(F)(F)C(F)(F)C(F)(F)C(F)(F)C(F)(F)C(F)(F)C(F)(F)C(F)(F)F` [2a3b], in data set [1], the Average diameter is given as 640 ± 10 ^c nm. Also, the “Maximum Non-Cytotoxic Concentration L929” value with L929 mouse fibroblasts is 0.5%. The “Maximum Non-Cytotoxic Concentration HMEC-1” value in data set [2] was determined as 0.5%. In addition, the “Maximum Non-Hemolytic Concentration” value with blood was determined as 0.25%.

Turning to `O=C([O-])CSCCC(F)(F)C(F)(F)C(F)(F)C(F)(F)C(F)(F)C(F)(F)C(F)(F)C(F)(F)F.[Na+]` [2cNa], the Average diameter in data set [1] is reported as 710 ± 20 ^c nm. The “Maximum Non-Cytotoxic Concentration L929” value in the data set on L929 mouse fibroblasts came out at 1%. Also, the “Maximum Non-Cytotoxic Concentration HMEC-1” value in data set [2] came to 0.2%. Also, the “Maximum Non-Hemolytic Concentration” value in the data set on blood was determined as 0.5%.
